Measurements published in the NIST ThermoML archive (doi:10.1016/j.jct.2016.06.032).
Numbers after ± are expanded uncertainties.

Legend:
[1] = Crystal; DTA
[2] = Molar enthalpy of transition or fusion; details: Crystal; DSC

- Normal melting temperature [1]: 125.90 ± 1.1 °C
- Molar enthalpy of transition or fusion [2]: 7 ± 0.454 kcal/mol
Compound: N#Cc1ccccc1-c1ccc(CBr)cc1 [4'-(bromomethyl)-2-cyanobiphenyl]
